From PMC5421785, “Citrullination only infrequently impacts peptide binding to HLA class II MHC” (PLoS ONE, 2017)
Like-named read-outs stand apart in the source and are kept apart here. Square brackets hold non-standard residues; d marks the D form. Ends that are not written are not given here. Peptide text beside a SMILES is read from it. Cit = NC(=O)NCCC[C@H](N)C(=O)O

Key:
[1] = biological target: T1, HLA-DRB1*04:01 (Homo sapiens, UniProt P01903+P01911, A100K/A169T/F76Y/I96L/K127E/L162R/M171V/N62H/P40V/Q125Y/R42H/S133A/S149N/S66Y/V115G/V209L/W38E); assay: HLA class II peptide binding, inhibition of radiolabeled peptide binding to purified MHC
T1 construct: EBV transformed homozygous cell lines were used as sources of MHC molecules; endogenous in cells; host or cells: EBV transformed homozygous cell lines

[2] = biological target: T2, HLA-DRB1*01:01 (Homo sapiens, UniProt P01903+P01911, A100R/D57E/F55L/F60I/F76Y/I96L/L162R/M171V/P40L/Q125E/R42F/V115G/Y59C); assay: as above
T2 construct: EBV transformed homozygous cell lines were used as sources of MHC molecules; endogenous in cells; host or cells: EBV transformed homozygous cell lines

[3] = citrullinated 15-mer peptide (X = citrulline), purified HLA-DRB1*04:01, read-out: DRB1*04:01 binding capacity, Cit peptide (IC50 nM)
[4] = citrullinated 15-mer peptide (X = citrulline), purified HLA-DRB1*01:01, read-out: DRB1*01:01 binding capacity, Cit peptide (IC50 nM)
[5] = read-out: DRB1*04:01 binding capacity, WT peptide (IC50 nM)
[6] = read-out: DRB1*01:01 binding capacity, WT peptide (IC50 nM)
[7] = wild-type (unmodified Arg) 15-mer peptide, purified HLA-DRB1*04:01, read-out: DRB1*04:01 binding capacity, WT peptide (IC50 nM)
[8] = wild-type (unmodified Arg) 15-mer peptide, purified HLA-DRB1*01:01, read-out: DRB1*01:01 binding capacity, WT peptide (IC50 nM)
[9] = citrullinated peptide as listed (X at Cit position), read-out: DRB1*04:01 binding capacity Cit peptide (IC50 nM)
[10] = citrullinated peptide as listed (X at Cit position), read-out: DRB1*01:01 binding capacity Cit peptide (IC50 nM)
[11] = citrullinated 15-mer (X), purified MHC, inhibition of radiolabeled peptide binding, dash = IC50 >40,000 nM, read-out: DRB1*04:01 binding capacity, Cit peptide (IC50 nM)
[12] = citrullinated 15-mer (X), purified MHC, inhibition of radiolabeled peptide binding, dash = IC50 >40,000 nM, read-out: DRB1*01:01 binding capacity, Cit peptide (IC50 nM)

Row | IC50 [1, 3] [nM] | IC50 [2, 4] [nM] | IC50 [1, 7] [nM] | IC50 [2, 8] [nM] | Molecule | also measured
1 | 4320 | 494 |  |  | CSCC[C@H](N)C(=O)N[C@@H](C)C(=O)N[C@@H](CCCNC(N)=O)C(=O)N[C@@H](Cc1c[nH]cn1)C(=O)N[C@@H](CC(C)C)C(=O)N[C@@H](CCCNC(=N)N)C(=O)N[C@@H](CCC(=O)O)C(=O)N[C@@H](Cc1ccc(O)cc1)C(=O)N[C@@H](CCC(N)=O)C(=O)N[C@@H](CC(=O)O)C(=O)N[C@@H](CC(C)C)C(=O)N[C@@H](CC(C)C)C(=O)N[C@@H](CC(N)=O)C(=O)N[C@H](C(=O)N[C@@H](CCCCN)C(=O)O)C(C)C [MAXHLREYQDLLNVK] (H-MA[Cit]HLREYQDLLNVK-OH) | 
2 | 5040 | 1.3 |  |  | CC[C@H](C)[C@H](NC(=O)CNC(=O)[C@H](CCCNC(=N)N)NC(=O)[C@H](CCC(N)=O)NC(=O)CNC(=O)[C@H](C)NC(=O)[C@@H](N)CC(C)C)C(=O)N[C@H](C(=O)NCC(=O)N[C@@H](CC(C)C)C(=O)N1CCC[C@H]1C(=O)NCC(=O)N[C@@H](CCC(N)=O)C(=O)N[C@@H](CCCNC(N)=O)C(=O)NCC(=O)O)C(C)C [LAGQRGIVGLPGQXG] (H-LAGQRGIVGLPGQ[Cit]G-OH) | 
3 |  |  |  |  | CSCC[C@H](NC(=O)[C@H](CCC(=O)O)NC(=O)[C@H](CCC(=O)O)NC(=O)[C@H](CCC(=O)O)NC(=O)[C@H](Cc1ccc(O)cc1)NC(=O)[C@H](CC(C)C)NC(=O)[C@H](CC(=O)O)NC(=O)CNC(=O)[C@@H](N)CC(C)C)C(=O)N[C@@H](CCCNC(=N)N)C(=O)N[C@@H](CCC(=O)O)C(=O)N[C@@H](CC(C)C)C(=O)N[C@@H](CCCNC(=N)N)C(=O)N[C@@H](CCCNC(=N)N)C(=O)N[C@@H](CCC(N)=O)C(=O)O [Vimentin 146 WT] | IC50 [1, 5]: 38500 nM; IC50 [2, 6]: 9380 nM
4 |  |  | > 40000 | 743 | PGQRGERGFPGLPGP [Collagen 986 WT] | 
5 |  |  | > 40000 | 3020 | CSCC[C@H](NC(=O)[C@H](CCC(=O)O)NC(=O)[C@H](CCC(=O)O)NC(=O)[C@H](CCCCN)NC(=O)[C@H](CCSC)NC(=O)[C@@H](N)CC(N)=O)C(=O)N[C@@H](C)C(=O)N[C@@H](CCCNC(=N)N)C(=O)N[C@@H](Cc1c[nH]cn1)C(=O)N[C@@H](CC(C)C)C(=O)N[C@@H](CCCNC(=N)N)C(=O)N[C@@H](CCC(=O)O)C(=O)N[C@@H](Cc1ccc(O)cc1)C(=O)N[C@@H](CCC(N)=O)C(=O)N[C@@H](CC(=O)O)C(=O)O [Vimentin 371 WT] | 
6 |  |  | 1050 | 14 | PGLQGMPGERGAAGI [Collagen 746 WT] | 
7 |  |  |  |  | ASRPSSSRSYVTTST [Vimentin 21 WT] | IC50 [1, 5]: 1030 nM; IC50 [2, 6]: 7580 nM
8 |  |  |  |  | CSCC[C@H](NC(=O)[C@H](Cc1ccc(O)cc1)NC(=O)[C@H](CCC(N)=O)NC(=O)[C@@H](N)CC(C)C)C(=O)N[C@@H](CCCNC(N)=O)C(=O)N[C@@H](C)C(=O)N[C@@H](CC(=O)O)C(=O)N[C@@H](CCC(N)=O)C(=O)N[C@@H](C)C(=O)N[C@@H](C)C(=O)NCC(=O)NCC(=O)N[C@@H](CC(C)C)C(=O)N[C@@H](CCCNC(=N)N)C(=O)N[C@@H](CCC(N)=O)C(=O)O [LQYMXADQAAGGLRQ] (H-LQYM[Cit]ADQAAGGLRQ-OH) | IC50 [1, 9]: 69 nM; IC50 [2, 10]: 16 nM
9 | 1200 | 1320 |  |  | CC[C@H](C)[C@H](NC(=O)[C@H](CCCNC(N)=O)NC(=O)[C@H](CO)NC(=O)[C@H](CCC(=O)O)NC(=O)[C@H](CCC(=O)O)NC(=O)CNC(=O)[C@H](CCC(=O)O)NC(=O)[C@H](CC(C)C)NC(=O)[C@H](CC(C)C)NC(=O)[C@H](CCCCN)NC(=O)[C@@H](N)CCCNC(=N)N)C(=O)N[C@@H](CO)C(=O)N[C@@H](CC(C)C)C(=O)N1CCC[C@H]1C(=O)N[C@@H](CC(C)C)C(=O)O [RKLLEGEESXISLPL] | 
10 |  |  |  |  | CC(C)[C@H](NC(=O)[C@H](Cc1ccc(O)cc1)NC(=O)[C@H](CO)NC(=O)[C@H](CCCNC(=N)N)NC(=O)[C@H](CO)NC(=O)[C@H](CO)NC(=O)[C@H](CO)NC(=O)[C@@H]1CCCN1C(=O)[C@H](CCCNC(N)=O)NC(=O)[C@H](CO)NC(=O)[C@H](C)N)C(=O)N[C@H](C(=O)N[C@H](C(=O)N[C@@H](CO)C(=O)N[C@H](C(=O)O)[C@@H](C)O)[C@@H](C)O)[C@@H](C)O [ASXPSSSRSYVTTST] (H-AS[Cit]PSSSRSYVTTST-OH) | IC50 [1, 11]: 757 nM; IC50 [2, 12]: 5560 nM
11 |  |  | 335 | 0.77 | GHRGFTGLQGLPGPP [Collagen 1131 WT] | 
12 | 6430 | 176 |  |  | CC[C@H](C)[C@H](NC(=O)[C@H](CC(C)C)NC(=O)[C@H](CC(C)C)NC(=O)[C@@H](NC(=O)[C@H](CCCNC(N)=O)NC(=O)[C@H](CCCCN)NC(=O)[C@H](CO)NC(=O)[C@H](Cc1c[nH]cn1)NC(=O)[C@@H](N)[C@@H](C)O)[C@@H](C)O)C(=O)N[C@@H](CCCCN)C(=O)N[C@H](C(=O)N[C@H](C(=O)N[C@@H](CCC(=O)O)C(=O)N[C@H](C(=O)N[C@@H](CCCNC(=N)N)C(=O)O)[C@@H](C)O)C(C)C)[C@@H](C)O [THSKXTLLIKTVETR] (H-THSK[Cit]TLLIKTVETR-OH) | 
13 |  |  | > 40000 | 32200 | ARGAQGPPGATGFPG [Collagen 886 WT] | 
14 | 2340 | 0.65 |  |  | CC(C)C[C@H](NC(=O)CNC(=O)[C@@H](NC(=O)[C@H](Cc1ccccc1)NC(=O)CNC(=O)[C@H](CCCNC(N)=O)NC(=O)[C@H](Cc1c[nH]cn1)NC(=O)CN)[C@@H](C)O)C(=O)N[C@@H](CCC(N)=O)C(=O)NCC(=O)N[C@@H](CC(C)C)C(=O)N1CCC[C@H]1C(=O)NCC(=O)N1CCC[C@H]1C(=O)N1CCC[C@H]1C(=O)O [GHXGFTGLQGLPGPP] (H-GH[Cit]GFTGLQGLPGPP-OH) | 
15 |  |  |  |  | CC[C@H](C)[C@H](NC(=O)[C@H](CO)NC(=O)[C@H](CCC(=O)O)NC(=O)[C@@H](NC(=O)[C@H](CCC(N)=O)NC(=O)[C@H](CC(N)=O)NC(=O)[C@H](CC(N)=O)NC(=O)[C@H](CC(C)C)NC(=O)[C@H](CO)NC(=O)[C@H](CCCCN)NC(=O)[C@H](CC(C)C)NC(=O)[C@@H](NC(=O)[C@H](C)NC(=O)[C@@H](N)CC(=O)O)[C@@H](C)O)[C@@H](C)CC)C(=O)N[C@@H](CCCNC(N)=O)C(=O)O [DATLKSLNNQIESIX] (H-DATLKSLNNQIESI[Cit]-OH) | IC50 [1, 9]: 1390 nM; IC50 [2, 10]: 9.4 nM
16 |  |  |  |  | CC[C@H](C)[C@H](NC(=O)[C@H](Cc1ccc(O)cc1)NC(=O)[C@H](CC(N)=O)NC(=O)[C@H](C)NC(=O)[C@H](Cc1ccccc1)NC(=O)[C@H](CCCNC(N)=O)NC(=O)[C@H](CC(=O)O)NC(=O)[C@@H](N)CC(N)=O)C(=O)N[C@@H](CC(=O)O)C(=O)N[C@@H](CCCCN)C(=O)N[C@H](C(=O)N[C@@H](CCCNC(=N)N)C(=O)N[C@@H](Cc1ccccc1)C(=O)N[C@@H](CC(C)C)C(=O)N[C@@H](CCC(=O)O)C(=O)O)C(C)C [NDXFANYIDKVRFLE] (H-ND[Cit]FANYIDKVRFLE-OH) | IC50 [1, 11]: 10900 nM; IC50 [2, 12]: 816 nM
17 |  |  | > 40000 | > 40000 | GPSGKDGPKGARGDS [Collagen 921 WT] | 
18 |  |  |  |  | CC(C)C[C@H](NC(=O)[C@H](CCC(=O)O)NC(=O)[C@H](C)NC(=O)[C@H](CC(C)C)NC(=O)[C@@H](N)CC(C)C)C(=O)N[C@@H](CCC(=O)O)C(=O)N[C@@H](CCC(N)=O)C(=O)N[C@@H](CC(C)C)C(=O)N[C@@H](CCCCN)C(=O)NCC(=O)N[C@@H](CCC(N)=O)C(=O)NCC(=O)N[C@@H](CCCCN)C(=O)N[C@@H](CO)C(=O)N[C@@H](CCCNC(N)=O)C(=O)O [LLAELEQLKGQGKSX] (H-LLAELEQLKGQGKS[Cit]-OH) | IC50 [1, 11]: > 40000 nM; IC50 [2, 12]: 428 nM
19 | > 40000 | 9030 |  |  | CC(C)[C@H](NC(=O)[C@H](CCC(N)=O)NC(=O)[C@H](CCCNC(=N)N)NC(=O)[C@H](CCCNC(N)=O)NC(=O)[C@H](Cc1ccc(O)cc1)NC(=O)[C@H](CCC(=O)O)NC(=O)[C@@H](NC(=O)[C@H](CO)NC(=O)[C@H](CCC(=O)O)NC(=O)[C@H](CCC(N)=O)NC(=O)[C@H](CCCCN)NC(=O)[C@H](C)NC(=O)[C@@H](N)CCC(N)=O)[C@@H](C)O)C(=O)N[C@@H](CCC(N)=O)C(=O)N[C@@H](CO)C(=O)O [QAKQESTEYXRQVQS] (H-QAKQESTEY[Cit]RQVQS-OH) | 
20 |  |  |  |  | CSCC[C@H](NC(=O)[C@H](Cc1ccc(O)cc1)NC(=O)[C@H](CCC(N)=O)NC(=O)[C@H](CC(C)C)NC(=O)[C@@H]1CCCN1C(=O)[C@H](CC(=O)O)NC(=O)[C@@H]1CCCN1C(=O)CNC(=O)[C@@H](N)CCCCN)C(=O)N[C@@H](CCCNC(N)=O)C(=O)N[C@@H](C)C(=O)N[C@@H](CC(=O)O)C(=O)N[C@@H](CCC(N)=O)C(=O)N[C@@H](C)C(=O)N[C@@H](C)C(=O)O [KGPDPLQYMXADQAA] (H-KGPDPLQYM[Cit]ADQAA-OH) | IC50 [1, 9]: 45 nM; IC50 [2, 10]: 9.2 nM
